Laboratory results published in patent US20210355106A1, “NEW AMINO-PYRIMIDONYL-PIPERIDINYL DERIVATIVES, A PROCESS FOR THEIR PREPARATION AND PHARMACEUTICAL COMPOSITIONS CONTAINING THEM” (LES LABORATOIRES SERVIER, priority 2018, published 2021).
Several values for one entry are separate records, joined by “and”; a condition that tells them apart may be missing. Equal values may be shown once.

Tests used:
[1] = tested on: Z138 mantle cell lymphoma tumour cell lines; assay: In vitro cytotoxicity, MTT assay; type: cell-based; settings: Z138 cells, exposed to the test compounds for 96 hours
Procedure, shortened: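 Z138 cells exposed to compounds for 96 hours, then MTT added for 4 hours. Formazan absorbance at 540 nm serves as the measure of viable cell number.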

USP7 = target: T1, USP7 (Homo sapiens, UniProt Q93009, C315A); assay: Inhibition of USP7 by Fluorescence Intensity (FLINT) readings, Ubiquitin-Rhodamine-110 substrate; type: biochemical; settings: 0.25 nM His-His-USP7 (aa208-560), 60 minutes at 30° C. preincubation; Ki determined from IC50 according to Cer et al.
T1 construct: 0.25 nM His-His-USP7 (aa208-560, |C315A|) was incubated with compound; His-His (N)
Procedure, shortened: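 His-tagged USP7 (aa208-560, C315A), 0.25 nM, preincubated with compound 60 min at 30 °C in 100 mM Bicine pH 8.0, 0.01% Triton X-100, 1 mM TCEP, 10% DMSO. Ubiquitin-Rhodamine-110 (50 nM or 4 μM) added; kinetic fluorescence (Ex 485/Em 535 nm) over 21 min; IC50 from 11-point curves, Ki derived from IC50.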

T1 sequence (Q93009 208-560 C315A): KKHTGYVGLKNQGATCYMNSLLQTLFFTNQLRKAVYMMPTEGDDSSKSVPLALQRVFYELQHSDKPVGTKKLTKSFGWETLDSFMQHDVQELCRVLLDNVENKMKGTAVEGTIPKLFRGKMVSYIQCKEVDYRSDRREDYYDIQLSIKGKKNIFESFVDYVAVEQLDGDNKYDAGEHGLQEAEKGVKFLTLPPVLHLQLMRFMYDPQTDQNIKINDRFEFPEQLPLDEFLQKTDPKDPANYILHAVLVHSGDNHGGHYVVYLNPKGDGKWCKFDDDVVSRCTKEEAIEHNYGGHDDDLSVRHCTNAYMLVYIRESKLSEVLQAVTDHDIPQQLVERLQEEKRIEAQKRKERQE

| Ki (USP7) | SMILES | IC50 ([1]; Homo sapiens, Z-138) [nM] | IC50 [1] [nM] |
| --- | --- | --- | --- |
| 4.83 nM | Cc1cncc(C(=O)N2CC[C@@H](C(=O)N3CC[C@](O)(Cn4cnc(Oc5ccc(F)cc5)c(N)c4=O)C(F)(F)C3)[C@H](c3ccccc3)C2)c1 [Example 157, 5-amino-3-[[(4S)-3,3-difluoro-4-hydroxy-1-[(3R,4R)-1-(5-methylpyridine-3-carbonyl)-3-phenyl-piperidine-4-carbonyl]-4-piperidyl]methyl]-6-(4-fluorophenoxy)pyrimidin-4-one] | 5.18 | – |
| 10.7 nM | Cc1nc(C2CCCCC2)sc1C(=O)N1CC[C@@H](C(=O)N2CCC(O)(Cn3cnc(Oc4ccc(F)cc4)c(N)c3=O)CC2)[C@H](c2ccccc2)C1 [Example 158] | 5.24 | – |
| 22.2 nM | Cc1ccc(-c2cccc(S(=O)(=O)N3CC[C@@H](C(=O)N4CCC(O)(Cn5cnc(Oc6ccc(F)cc6)c(N)c5=O)CC4)[C@H](c4ccccc4)C3)c2)cn1 [Example 159, 5-amino-6-(4-fluorophenoxy)-3-[[4-hydroxy-1-[(3R,4R)-1-[3-(6-methyl-3-pyridyl)phenyl]sulfonyl-3-phenyl-piperidine-4-carbonyl]-4-piperidyl]methyl]pyrimidin-4-one] | 8.18 | – |
| 16.9 nM | Nc1c(Oc2ccc(F)cc2)ncn(C[C@@]2(O)CCN(C(=O)[C@@H]3CCN(Cc4ccnc(Cl)n4)C[C@H]3c3ccccc3)CC2(F)F)c1=O [Example 160] | 6.47 | – |
| 10.1 nM | Cc1nc(C2CCCC2)sc1C(=O)N1CC[C@@H](C(=O)N2CCC(O)(Cn3cnc(Oc4ccc(F)cc4)c(N)c3=O)CC2)[C@H](c2ccccc2)C1 [Example 161, 5-amino-3-[[1-[(3R,4R)-1-(2-cyclopentyl-4-methyl-thiazole-5-carbonyl)-3-phenyl-piperidine-4-carbonyl]-4-hydroxy-4-piperidyl]methyl]-6-(4-fluorophenoxy)pyrimidin-4-one] | 3.63 | – |
| 12.7 nM | Cc1cc(Cl)cc(C(=O)N2CC[C@@H](C(=O)N3CCC(O)(Cn4cnc(Oc5ccc(F)cc5)c(N)c4=O)CC3)[C@H](c3ccccc3)C2)c1 [Example 162] | 3.72 | – |
| 9.76 nM | Nc1c(Oc2ccc(F)cc2)ncn(CC2(O)CCN(C(=O)[C@@H]3CCN(C(=O)c4cncc(-n5cccc5)c4)C[C@H]3c3ccccc3)CC2)c1=O [Example 163, 5-amino-6-(4-fluorophenoxy)-3-[[4-hydroxy-1-[(3R,4R)-3-phenyl-1-(5-pyrrol-1-ylpyridine-3-carbonyl)piperidine-4-carbonyl]-4-piperidyl]methyl]pyrimidin-4-one] | 1.41 | – |
| 6.48 nM and 5.16 nM | Cc1ccc(-c2cc(CN3CC[C@@H](C(=O)N4CC[C@](O)(Cn5cnc(Oc6ccc(F)cc6)c(N)c5=O)C(F)(F)C4)[C@H](c4ccccc4)C3)ncn2)cn1 [Example 164, 5-amino-3-[[(4S)-3,3-difluoro-4-hydroxy-1-[(3R,4R)-1-[[6-(6-methyl-3-pyridyl)pyrimidin-4-yl}methyl]-3-phenyl-piperidine-4-carbonyl]-4-piperidyl]methyl]-6-(4-fluorophenoxy)pyrimidin-4-one] | 1.83 | – |

Second part, the compound before the results:

| SMILES | Ki (USP7) | IC50 ([1]; Homo sapiens, Z-138) [nM] | IC50 [1] [nM] |
| --- | --- | --- | --- |
| Nc1c(Oc2ccc(F)cc2)ncn(CC2(O)CCN(C(=O)[C@@H]3CCN(C(=O)c4cc(F)cc(F)c4)C[C@H]3c3ccccc3)CC2)c1=O [Example 129, 5-amino-3-[[1-[(3R,4R)-1-(3,5-difluorobenzoyl)-3-phenyl-piperidine-4-carbonyl]-4-hydroxy-4-piperidyl]methyl]-6-(4-fluorophenoxy)pyrimidin-4-one] | 2.87 nM | 5.2 | – |
| Nc1c(Oc2ccc(F)cc2)ncn(CC2(O)CCN(C(=O)[C@@H]3CCN(C(=O)c4cc(Cl)cc(Cl)c4)C[C@H]3c3ccccc3)CC2)c1=O [Example 130] | 1.83 nM | 7.5 | – |
| Cc1ccc(-c2nc(C)c(C(=O)N3CC[C@@H](C(=O)N4CCC(O)(Cn5cnc(Oc6ccc(CN)cc6)c(N)c5=O)CC4)[C@H](c4ccccc4)C3)s2)cn1 [Example 131] | 0.064 nM | 5.3 | – |
| Nc1c(Oc2ccc(F)cc2)ncn(CC2(O)CCN(C(=O)[C@@H]3CCN(C(=O)C4(c5ccccc5)CC4)C[C@H]3c3ccccc3)CC2)c1=O [Example 132] | 35.4 nM | 47.8 | – |
| Nc1c(Oc2ccc(F)cc2)ncn(CC2(O)CCN(C(=O)[C@@H]3CCN(C(=O)c4cncc(Cl)c4)C[C@H]3c3ccccc3)CC2)c1=O [Example 133, 5-amino-3-[[1-[(3R,4R)-1-(5-chloropyridine-3-carbonyl)-3-phenyl-piperidine-4-carbonyl]-4-hydroxy-4-piperidyl]methyl]-6-(4-fluorophenoxy)pyrimidin-4-one] | 1.52 nM | 9.8 | – |
| Nc1c(Oc2ccc(F)cc2)ncn(CC2(O)CCN(C(=O)[C@@H]3CCN(C(=O)c4cncc(F)c4)C[C@H]3c3ccccc3)CC2)c1=O [Example 134, 5-amino-6-(4-fluorophenoxy)-3-[[1-[(3R,4R)-1-(5-fluoropyridine-3-carbonyl)-3-phenyl-piperidine-4-carbonyl]-4-hydroxy-4-piperidyl]methyl]pyrimidin-4-one] | 3.7 nM | 17 | – |
| Cc1ccccc1C1(N2CC[C@@H](C(=O)N3CCC(O)(Cn4cnc(Oc5ccc(F)cc5)c(N)c4=O)CC3)[C@H](c3ccccc3)C2)COC1 [Example 138] | 45 nM | 24 | – |
| COc1ccccc1C1(N2CC[C@@H](C(=O)N3CCC(O)(Cn4cnc(Oc5ccc(F)cc5)c(N)c4=O)CC3)[C@H](c3ccccc3)C2)COC1 [Example 139, 5-amino-6-(4-fluorophenoxy)-3-[[4-hydroxy-1-[(3R,4R)-1-[3-(2-methoxyphenyl)oxetan-3-yl]-3-phenyl-piperidine-4-carbonyl]-4-piperidyl]methyl]pyrimidin-4-one] | 19 nM | 24.6 | – |
| Nc1c(Oc2ccc(F)cc2)ncn(CC2(O)CCN(C(=O)[C@@H]3CCN(C4(c5ccccc5Cl)COC4)C[C@H]3c3ccccc3)CC2)c1=O [Example 140, 5-amino-3-[[1-((3R,4R)-1-[3-(2-chlorophenyl)oxetan-3-yl]-3-phenyl-piperidine-4-carbonyl]-4-hydroxy-4-piperidyl]methyl]-6-(4-fluorophenoxy)pyrimidin-4-one] | 12 nM | 20 | – |
| Cc1nccc(CN2CC[C@@H](C(=O)N3CC[C@](O)(Cn4cnc(Oc5cccc(C(F)(F)F)c5)c(N)c4=O)C(F)(F)C3)[C@H](c3ccccc3)C2)n1 [Example 143, 5-amino-3-[[(4S)-3,3-difluoro-4-hydroxy-1-[(3R,4R)-1-[(2-methylpyrimidin-4-yl)methyl]-3-phenyl-piperidine-4-carbonyl]-4-piperidyl]methyl]-6-(3-(trifluoromethyl)phenoxy]pyrimidin-4-one] | 42 nM | 217 | – |
| Cc1cnc(CN2CC[C@@H](C(=O)N3CC[C@](O)(Cn4cnc(Oc5cccc(C(F)(F)F)c5)c(N)c4=O)C(F)(F)C3)[C@H](c3ccccc3)C2)cn1 [Example 144, 5-amino-3-{[(4S)-3,3-difluoro-4-hydroxy-1-[(3R,4R)-1-((5-methylpyrazin-2-yl)methyl]-3-phenyl-piperidine-4-carbonyl]-4-piperidyl]methyl]-6-[3-(trifluoromethyl)phenoxy]pyrimidin-4-one] | 22 nM | 80.2 | – |
| Cc1nccc(CN2CC[C@@H](C(=O)N3CC[C@](O)(Cn4cnc(Oc5ccc(Cl)c(F)c5)c(N)c4=O)C(F)(F)C3)[C@H](c3ccccc3)C2)n1 [Example 147] | 19 nM | 48.7 | – |
| Cc1cnc(CN2CC[C@@H](C(=O)N3CC[C@](O)(Cn4cnc(Oc5ccc(Cl)c(F)c5)c(N)c4=O)C(F)(F)C3)[C@H](c3ccccc3)C2)cn1 [Example 148, 5-amino-6-(4-chloro-3-fluoro-phenoxy)-3-[[(4S)-3,3-difluoro-4-hydroxy-1-[(3R,4R)-1-[(5-methylpyrazin-2-yl)methyl]-3-phenyl-piperidine-4-carbonyl]-4-piperidyl]methyl]pyrimidin-4-one] | 7.5 nM | 39.9 | – |
| COc1cc(Oc2ncn(C[C@@]3(O)CCN(C(=O)[C@@H]4CCN(Cc5ccnc(C)n5)C[C@H]4c4ccccc4)CC3(F)F)c(=O)c2N)ccc1F [Example 149] | 14 nM | 24.1 | – |
| Nc1c(Oc2ccc(F)cc2)ncn(CC2(O)CCN(C(=O)[C@@H]3CCN(C4(c5cccc(C(F)(F)F)c5)COC4)C[C@H]3c3ccccc3)CC2)c1=O [Example 152, 5-amino-6-(4-fluorophenoxy)-3-[[4-hydroxy-1-[(3R,4R)-3-phenyl-1-[3-[3-(trifluoromethyl)phenyl]oxetan-3-yl]piperidine-4-carbonyl]-4-piperidyl]methyl]pyrimidin-4-one] | 82 nM | 202 | – |
| Nc1c(Oc2ccc(F)cc2)ncn(CC2(O)CCN(C(=O)[C@@H]3CCN(C4(c5cccc(F)c5)COC4)C[C@H]3c3ccccc3)CC2)c1=O [Example 153, 5-amino-6-(4-fluorophenoxy)-3-[[1-[(3R,4R)-1-[3-(3-fluorophenyl)oxetan-3-yl]-3-phenyl-piperidine-4-carbonyl]-4-hydroxy-4-piperidyl]methyl]pyrimidin-4-one] | 28.7 nM | 62 | – |
| COc1cc(Oc2ncn(C[C@@]3(O)CCN(C(=O)[C@@H]4CCN(Cc5cnc(C)cn5)C[C@H]4c4ccccc4)CC3(F)F)c(=O)c2N)ccc1F [Example 154] | 7.8 nM | 11.4 | – |
| Cc1ccc(C2(N3CC[C@@H](C(=O)N4CCC(O)(Cn5cnc(Oc6ccc(F)cc6)c(N)c5=O)CC4)[C@H](c4ccccc4)C3)COC2)cc1 [Example 155] | 97 nM | – | 588 |
